Source: patent US12723063B2, “GIPR-agonist compounds” (Eli Lilly and Company, priority 2019, dated 2026)
*1 amine or outer side, *2 acyl side, *3 side chain or, on linkers, in order; H or OH if unused. Where a SMILES comes first, the peptide text is derived from it. Side-chain parts run from the residue outwards. [ ]: non-standard residue; d: D form. The star is where a group is joined. C20 diacid = O=C(O)CCCCCCCCCCCCCCCCCCC(=O)*; C18 diacid = O=C(O)CCCCCCCCCCCCCCCCC(=O)*; αMePhe(2-F) = C[C@](N)(Cc1ccccc1F)C(=O)O; γGlu = O=C(O)[C@H](CCC(=O)[*:2])N[*:1]; 4Pal = N[C@@H](Cc1ccncc1)C(=O)O; αMeL = CC(C)C[C@](C)(N)C(=O)O; Orn = NCCC[C@H](N)C(=O)O; AEEA = NCCOCCOCC(=O)O; Aib = CC(C)(N)C(=O)O

Columns and labels:
human GIPR = molecular target: T1, human GIPR (Homo sapiens, UniProt P48546); assay: [125I]-GIP binding, SPA with WGA beads, 0.1% bacitracin; details: geometric mean, read-out: hGIPR Ki
T1 construct: expressed in transfected cells; crude membranes
T1 sequence (P48546 22-466): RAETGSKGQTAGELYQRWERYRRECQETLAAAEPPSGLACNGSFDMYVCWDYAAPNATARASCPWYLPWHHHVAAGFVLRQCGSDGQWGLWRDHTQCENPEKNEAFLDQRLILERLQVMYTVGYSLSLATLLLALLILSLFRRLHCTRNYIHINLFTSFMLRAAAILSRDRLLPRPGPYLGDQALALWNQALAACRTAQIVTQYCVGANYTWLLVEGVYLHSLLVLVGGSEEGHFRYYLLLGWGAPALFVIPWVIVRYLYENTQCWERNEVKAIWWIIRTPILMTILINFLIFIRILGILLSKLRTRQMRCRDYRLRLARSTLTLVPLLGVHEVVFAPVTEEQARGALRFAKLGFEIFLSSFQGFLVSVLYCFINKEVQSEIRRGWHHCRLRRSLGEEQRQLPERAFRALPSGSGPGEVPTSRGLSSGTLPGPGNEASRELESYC
Experimental: (§1) Stably transfected cell lines are prepared by subcloning receptor cDNA into a pcDNA3 expression plasmid and transfected into human embryonic kidney (HEK) 293 (hGcgR and hGLP-1R) or Chinese Hamster Ovary (CHO) (hGIPR) cells followed by selection with Geneticin (hGLP-1R and hGIPR) or hygromycin B (hGcgR).
(§2) Two methods are used for the preparation of crude cell membranes.
(§3) Method 1: Frozen cell pellets are lysed on ice in hypotonic buffer containing 50 mM Tris HCl, pH 7.5, and Roche Complete™ Protease Inhibitors with EDTA. The cell suspension is disrupted using a glass Potter-Elvehjem homogenizer fitted with a Teflon® pestle for 25 strokes. The homogenate is centrifuged at 4° C. at 1100× g for 10 minutes. The supernatant is collected and stored on ice while the pellets are resuspended in homogenization buffer and rehomogenized as described above. The homogenate is centrifuged at 1100× g for 10 minutes. The second supernatant is combined with the first supernatant and centrifuged at 35000× g for 1 hour at 4° C. The resulting membrane pellet is resuspended in homogenization buffer containing protease inhibitors at approximately 1 to 3 mg/mL, quick frozen in liquid nitrogen and stored as aliquots in a −80° C. freezer until use.
(§4) Method 2: Frozen cell pellets are lysed on ice in hypotonic buffer containing 50 mM Tris HCl, pH 7.5, 1 mM MgCl2, Roche Complete™ EDTA-free Protease Inhibitors and 25 units/mL DNAse I (Invitrogen). The cell suspension is disrupted using a glass Potter-Elvehjem homogenizer fitted with a Teflon® pestle for 20 to 25 strokes. The homogenate is centrifuged at 4° C. at 1800× g for 15 minutes. The supernatant is collected and stored on ice while the pellets are resuspended in homogenization buffer (without DNAse I) and rehomogenized as described above. The homogenate is centrifuged at 1800× g for 15 minutes. The second supernatant is combined with the first supernatant and centrifuged an additional time at 1800× g for 15 minutes. The overall supernatant is then centrifuged at 25000× g for 30 minutes at 4° C. The resulting membrane pellet is resuspended in homogenization buffer (without DNAse I) containing protease inhibitors at approximately 1 to 3 mg/mL and stored as aliquots in a −80° C. freezer until use.
The binding buffer contains 25 mM HEPES, pH 7.4, 2.5 mM CaCl2), 1 mM MgCl2, 0.1% (w/v) bacitracin, 0.003% (w/v) TWEEN®-20, and Roche Complete™ Protease Inhibitors without EDTA. […] Plates are sealed and mixed on a plate shaker (setting 6) for 1 minute and read with a PerkinElmer Trilux MicroBeta® scintillation counter after 2.5 to 12 hours of incubation/settling time at room temperature.
(§5) Data are analyzed using four-parameter (curve maximum, curve minimum, IC50, Hill slope) nonlinear regression routines (Genedata Screener, version 12.0.4, Genedata AG, Basal, Switzerland). […] Values for Ki are reported as the geometric mean, with error expressed as the standard error of the mean (SEM) and n is equal to the number of independent replicates (determined in assays performed on different days). […] SEM is only calculated when […] or greater. Means are expressed as geometric means with the standard error of the mean (SEM) and the number of replicates (n) indicated in parentheses.

human GcgR = molecular target: T2, human GcgR (Homo sapiens, UniProt P47871); assay: [125I]-Glucagon binding, SPA with WGA beads, 0.1% bacitracin; details: geometric mean, read-out: hGcgR Ki
T2 construct: expressed in transfected cells; crude membranes
T2 sequence (P47871 26-477): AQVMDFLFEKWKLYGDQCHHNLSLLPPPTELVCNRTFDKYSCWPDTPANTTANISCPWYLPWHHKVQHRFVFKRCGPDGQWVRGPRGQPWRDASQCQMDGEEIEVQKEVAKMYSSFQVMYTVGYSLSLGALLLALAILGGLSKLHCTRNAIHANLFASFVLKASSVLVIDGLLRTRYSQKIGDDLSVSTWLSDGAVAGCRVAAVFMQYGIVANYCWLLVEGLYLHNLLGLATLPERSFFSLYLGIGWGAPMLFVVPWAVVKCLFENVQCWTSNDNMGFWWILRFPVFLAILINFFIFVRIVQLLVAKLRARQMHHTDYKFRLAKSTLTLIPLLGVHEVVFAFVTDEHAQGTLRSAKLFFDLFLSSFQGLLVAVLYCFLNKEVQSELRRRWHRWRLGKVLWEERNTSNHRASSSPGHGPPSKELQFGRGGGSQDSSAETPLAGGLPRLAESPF
Experimental: as §1, §2, §3, §4
The human Geg receptor binding assays are performed using a Scintillation Proximity Assay (SPA) format with wheat germ agglutinin (WGA) beads (Perkin Elmer). The binding buffer contains 25 mM 4-(2-hydroxyethyl)-1-piperazineethanesulfonic acid (HEPES), pH 7.4, 2.5 mM CaCl2), 1 mM MgCl2, 0.1% (w/v) bacitracin (Research Products), 0.003% (w/v) Polyoxyethylenesorbitan monolaurate (TWEEN®-20), and Roche Complete™ Protease Inhibitors without EDTA. Peptides and Gcg are thawed and 3-fold serially diluted in 100% DMSO (10 point concentration response curves). Next, 5 μL serially diluted compound or DMSO is transferred into Corning® 3632 clear bottom assay plates containing 45 μL assay binding buffer or unlabeled Gcg control (non-specific binding or NSB, at 1 μM final). […] Plates are sealed and mixed on a plate shaker (setting 6) for 1 minute and read with a PerkinElmer Trilux MicroBeta® scintillation counter after 12 hours of incubation/settling time at room temperature.
as §5

human GLP-1R = molecular target: T3, human GLP-1R (Homo sapiens, UniProt P43220); assay: [125I]-GLP-1 binding, SPA with WGA beads, 0.1% bacitracin; details: geometric mean, read-out: hGLP1R Ki
T3 construct: expressed in transfected cells; crude membranes
T3 sequence (P43220 24-463): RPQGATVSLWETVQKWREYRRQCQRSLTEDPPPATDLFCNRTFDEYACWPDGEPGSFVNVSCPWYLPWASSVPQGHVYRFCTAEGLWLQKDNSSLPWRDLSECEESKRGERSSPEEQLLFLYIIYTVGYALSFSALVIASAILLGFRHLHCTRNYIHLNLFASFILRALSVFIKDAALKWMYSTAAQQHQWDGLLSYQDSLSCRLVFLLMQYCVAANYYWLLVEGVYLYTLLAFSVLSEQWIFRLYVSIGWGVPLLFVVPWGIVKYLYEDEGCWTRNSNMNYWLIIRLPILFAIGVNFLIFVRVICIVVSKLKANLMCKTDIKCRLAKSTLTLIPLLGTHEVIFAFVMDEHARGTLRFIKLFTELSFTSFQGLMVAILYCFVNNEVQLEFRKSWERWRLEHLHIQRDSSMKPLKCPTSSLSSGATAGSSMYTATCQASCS
Experimental: as §1, §2, §3, §4
The binding buffer contains 25 mM HEPES, pH 7.4, 2.5 mM CaCl2), 1 mM MgCl2, 0.1% (w/v) bacitracin, 0.003% (w/v) TWEEN®-20, and Roche Complete™ Protease Inhibitors without EDTA.
as §5

SMILES	Ki (human GIPR) [nM]	Ki (human GcgR) [nM]	Ki (human GLP-1R) [nM]
CC[C@H](C)[C@H](NC(=O)[C@H](CCCCN)NC(=O)[C@H](CC(=O)O)NC(=O)[C@H](CC(C)C)NC(=O)[C@](C)(CC(C)C)NC(=O)[C@@H](NC(=O)[C@H](CO)NC(=O)[C@H](Cc1ccc(O)cc1)NC(=O)[C@H](CC(=O)O)NC(=O)[C@H](CO)NC(=O)[C@@H](NC(=O)[C@H](Cc1ccccc1)NC(=O)[C@@H](NC(=O)CNC(=O)[C@H](CCC(=O)O)NC(=O)C(C)(C)NC(=O)[C@@H](N)Cc1ccc(O)cc1)[C@@H](C)O)[C@@H](C)CC)[C@@H](C)CC)C(=O)N[C@@H](Cc1c[nH]cn1)C(=O)N[C@@H](CCC(N)=O)C(=O)NC(C)(C)C(=O)N[C@@H](CC(=O)O)C(=O)N[C@@H](Cc1ccccc1)C(=O)N[C@H](C(=O)N[C@@H](CCC(=O)O)C(=O)N[C@@H](Cc1ccncc1)C(=O)N[C@@H](CCCCNC(=O)COCCOCCNC(=O)COCCOCCNC(=O)CC[C@H](NC(=O)CCCCCCCCCCCCCCCCC(=O)O)C(=O)O)C(=O)N[C@@H](CC(C)C)C(=O)N[C@@H](CCC(=O)O)C(=O)NCC(=O)NCC(=O)N1CCC[C@H]1C(=O)N[C@@H](CO)C(=O)N[C@@H](CO)C(=O)NCC(=O)N[C@@H](C)C(=O)N1CCC[C@H]1C(=O)N1CCC[C@H]1C(=O)N1CCC[C@H]1C(=O)N[C@@H](CO)C(N)=O)C(C)C [Example 110] (H-Y[Aib]EGTFISDYSI[αMeL]LDKIHQ[Aib]DFVE[4Pal]K([AEEA-AEEA-γGlu-C18 diacid])LEGGPSSGAPPPS-NH2)	0.339	> 960	> 908
CC[C@H](C)[C@H](NC(=O)[C@H](CO)NC(=O)[C@H](Cc1ccc(O)cc1)NC(=O)[C@H](CC(=O)O)NC(=O)[C@H](CO)NC(=O)[C@@H](NC(=O)[C@](C)(Cc1ccccc1F)NC(=O)[C@@H](NC(=O)CNC(=O)[C@H](CCC(=O)O)NC(=O)C(C)(C)NC(=O)[C@@H](N)Cc1ccc(O)cc1)[C@@H](C)O)[C@@H](C)CC)C(=O)N[C@@H](CC(C)C)C(=O)N[C@@H](CC(C)C)C(=O)N[C@@H](CC(=O)O)C(=O)N[C@@H](CCCCN)C(=O)N[C@H](C(=O)N[C@@H](Cc1c[nH]cn1)C(=O)N[C@@H](CCC(N)=O)C(=O)NC(C)(C)C(=O)N[C@@H](CC(=O)O)C(=O)N[C@@H](Cc1ccccc1)C(=O)N[C@H](C(=O)N[C@@H](CCC(=O)O)C(=O)N[C@@H](Cc1ccncc1)C(=O)N[C@@H](CCCCNC(=O)COCCOCCNC(=O)COCCOCCNC(=O)CC[C@H](NC(=O)CCCCCCCCCCCCCCCCCCC(=O)O)C(=O)O)C(=O)N[C@@H](CC(C)C)C(=O)N[C@@H](CCC(=O)O)C(=O)N[C@@H](C)C(=O)NCC(=O)N1CCC[C@H]1C(=O)N[C@@H](CO)C(=O)N[C@@H](CO)C(=O)NCC(=O)N[C@@H](C)C(=O)N1CCC[C@H]1C(=O)N1CCC[C@H]1C(=O)N1CCC[C@H]1C(=O)N[C@@H](CO)C(N)=O)C(C)C)[C@@H](C)CC [Example 120] (H-Y[Aib]EGT[αMePhe(2-F)]ISDYSILLDKIHQ[Aib]DFVE[4Pal]K([AEEA-AEEA-γGlu-C20 diacid])LEAGPSSGAPPPS-NH2)	0.171	575	> 912
CC[C@H](C)[C@H](NC(=O)[C@H](CCCN)NC(=O)[C@H](CC(=O)O)NC(=O)[C@H](CC(C)C)NC(=O)[C@](C)(CC(C)C)NC(=O)[C@@H](NC(=O)[C@H](CO)NC(=O)[C@H](Cc1ccc(O)cc1)NC(=O)[C@H](CC(=O)O)NC(=O)[C@H](CO)NC(=O)[C@@H](NC(=O)[C@H](Cc1ccccc1)NC(=O)[C@@H](NC(=O)CNC(=O)[C@H](CCC(=O)O)NC(=O)C(C)(C)NC(=O)[C@@H](N)Cc1ccc(O)cc1)[C@@H](C)O)[C@@H](C)CC)[C@@H](C)CC)C(=O)N[C@@H](Cc1c[nH]cn1)C(=O)N[C@@H](CCC(N)=O)C(=O)NC(C)(C)C(=O)N[C@@H](CCC(=O)O)C(=O)N[C@@H](Cc1ccccc1)C(=O)N[C@H](C(=O)N[C@@H](CCC(=O)O)C(=O)N[C@@H](Cc1ccc(O)cc1)C(=O)N[C@@H](CCCCNC(=O)COCCOCCNC(=O)COCCOCCNC(=O)CC[C@H](NC(=O)CCCCCCCCCCCCCCCCCCC(=O)O)C(=O)O)C(=O)N[C@@H](CC(C)C)C(=O)N[C@@H](CCC(=O)O)C(=O)NCC(=O)NCC(=O)N1CCC[C@H]1C(=O)N[C@@H](CO)C(=O)N[C@@H](CO)C(=O)NCC(=O)N[C@@H](C)C(=O)N1CCC[C@H]1C(=O)N1CCC[C@H]1C(=O)N1CCC[C@H]1C(=O)N[C@@H](CO)C(N)=O)C(C)C [Example 107] (H-Y[Aib]EGTFISDYSI[αMeL]LD[Orn]IHQ[Aib]EFVEYK([AEEA-AEEA-γGlu-C20 diacid])LEGGPSSGAPPPS-NH2)	0.0722	347	> 911
CC[C@H](C)[C@H](NC(=O)[C@H](CCCN)NC(=O)[C@H](CC(=O)O)NC(=O)[C@H](CC(C)C)NC(=O)[C@](C)(CC(C)C)NC(=O)[C@@H](NC(=O)[C@H](CO)NC(=O)[C@H](Cc1ccc(O)cc1)NC(=O)[C@H](CC(=O)O)NC(=O)[C@H](CO)NC(=O)[C@@H](NC(=O)[C@H](Cc1ccccc1)NC(=O)[C@@H](NC(=O)CNC(=O)[C@H](CCC(=O)O)NC(=O)C(C)(C)NC(=O)[C@@H](N)Cc1ccc(O)cc1)[C@@H](C)O)[C@@H](C)CC)[C@@H](C)CC)C(=O)N[C@@H](Cc1c[nH]cn1)C(=O)N[C@@H](CCC(N)=O)C(=O)NC(C)(C)C(=O)N[C@@H](CC(=O)O)C(=O)N[C@@H](Cc1ccccc1)C(=O)N[C@H](C(=O)N[C@@H](CCC(=O)O)C(=O)N[C@@H](Cc1ccncc1)C(=O)N[C@@H](CCCCNC(=O)COCCOCCNC(=O)COCCOCCNC(=O)CC[C@H](NC(=O)CCCCCCCCCCCCCCCCC(=O)O)C(=O)O)C(=O)N[C@@H](CC(C)C)C(=O)N[C@@H](CCC(=O)O)C(=O)NCC(=O)NCC(=O)N1CCC[C@H]1C(=O)N[C@@H](CO)C(=O)N[C@@H](CO)C(=O)NCC(=O)N[C@@H](C)C(=O)N1CCC[C@H]1C(=O)N1CCC[C@H]1C(=O)N1CCC[C@H]1C(=O)N[C@@H](CO)C(N)=O)C(C)C [Example 111] (H-Y[Aib]EGTFISDYSI[αMeL]LD[Orn]IHQ[Aib]DFVE[4Pal]K([AEEA-AEEA-γGlu-C18 diacid])LEGGPSSGAPPPS-NH2)	0.0871	> 960	> 908
